Results from ChEMBL document CHEMBL1139540, “Replacement of Phe6, Phe7, and Phe11 of D-Trp8-somatostatin-14 with L-pyrazinylalanine. Predicted and observed effects on binding affinities at hSST2 and hSST4. An unexpected effect of the chirality of Trp8 on NMR spectra in methanol” (J Med Chem, 2005).
Bridge positions count the residues as written; N and C are the ends. Peptide text beside a SMILES is read from it.

What was measured:
[1] = target: T1, Somatostatin receptor type 2 (Homo sapiens, UniProt P30874); test: Inhibition of human somatostatin receptor type 2 (n=6)
T1 sequence (P30874 whole entry): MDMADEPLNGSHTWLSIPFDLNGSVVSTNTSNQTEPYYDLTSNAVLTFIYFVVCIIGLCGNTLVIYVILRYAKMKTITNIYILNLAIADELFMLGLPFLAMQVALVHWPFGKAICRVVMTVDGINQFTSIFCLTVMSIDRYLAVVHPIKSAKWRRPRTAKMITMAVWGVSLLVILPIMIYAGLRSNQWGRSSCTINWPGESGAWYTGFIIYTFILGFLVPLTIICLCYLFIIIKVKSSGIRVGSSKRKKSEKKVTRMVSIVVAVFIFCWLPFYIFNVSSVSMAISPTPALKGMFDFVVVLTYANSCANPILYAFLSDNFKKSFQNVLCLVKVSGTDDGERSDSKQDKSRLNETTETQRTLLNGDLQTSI

[2] = target: T2, Somatostatin receptor type 4 (Homo sapiens, UniProt P31391); test: Inhibition of human somatostatin receptor type 4 (n=5)
T2 sequence (P31391 whole entry): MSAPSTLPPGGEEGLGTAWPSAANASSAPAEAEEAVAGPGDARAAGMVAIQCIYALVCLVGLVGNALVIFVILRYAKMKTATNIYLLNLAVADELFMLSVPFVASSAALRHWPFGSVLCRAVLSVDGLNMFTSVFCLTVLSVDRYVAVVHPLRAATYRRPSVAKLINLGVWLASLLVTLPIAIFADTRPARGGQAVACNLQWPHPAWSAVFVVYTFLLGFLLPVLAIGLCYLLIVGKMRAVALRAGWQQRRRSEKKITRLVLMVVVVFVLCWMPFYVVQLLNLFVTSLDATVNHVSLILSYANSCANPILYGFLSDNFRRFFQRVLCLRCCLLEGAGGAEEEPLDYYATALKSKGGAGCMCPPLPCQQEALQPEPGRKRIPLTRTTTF

[3] = target: T2, Somatostatin receptor type 4; test: Inhibition of human somatostatin receptor type 4
[4] = target: T1, Somatostatin receptor type 2; test: Inhibition of human somatostatin receptor type 2

| Ki [1] [nM] | Ki [2] [nM] | Ki [3] [nM] | Ki [4] [nM] | SMILES |
| --- | --- | --- | --- | --- |
| 7 | 77 | 60 | 1 | C[C@H](N)C(=O)NCC(=O)N[C@H]1CSSC[C@@H](C(=O)O)NC(=O)[C@H](CO)NC(=O)[C@H]([C@@H](C)O)NC(=O)[C@H](Cc2ccccc2)NC(=O)[C@H]([C@@H](C)O)NC(=O)[C@H](CCCCN)NC(=O)[C@@H](Cc2c[nH]c3ccccc23)NC(=O)[C@H](Cc2ccccc2)NC(=O)[C@H](Cc2cnccn2)NC(=O)[C@H](CC(N)=O)NC(=O)[C@H](CCCCN)NC1=O |
| – | – | 700 | > 1000 | C[C@H](N)C(=O)NCC(=O)N[C@H]1CSSC[C@@H](C(=O)O)NC(=O)[C@H](CO)NC(=O)[C@H]([C@@H](C)O)NC(=O)[C@H](Cc2ccccc2)NC(=O)[C@H]([C@@H](C)O)NC(=O)[C@H](CCCCN)NC(=O)[C@@H](Cc2c[nH]c3ccccc23)NC(=O)[C@H](Cc2cnccn2)NC(=O)[C@H](Cc2ccccc2)NC(=O)[C@H](CC(N)=O)NC(=O)[C@H](CCCCN)NC1=O |
| – | – | 124 | 1 | C[C@H](N)C(=O)NCC(=O)N[C@H]1CSSC[C@@H](C(=O)O)NC(=O)[C@H](CO)NC(=O)[C@H]([C@@H](C)O)NC(=O)[C@H](Cc2cnccn2)NC(=O)[C@H]([C@@H](C)O)NC(=O)[C@H](CCCCN)NC(=O)[C@@H](Cc2c[nH]c3ccccc23)NC(=O)[C@H](Cc2ccccc2)NC(=O)[C@H](Cc2ccccc2)NC(=O)[C@H](CC(N)=O)NC(=O)[C@H](CCCCN)NC1=O |
| – | – | 80 | – | C[C@H](N)C(=O)NCC(=O)N[C@H]1CSSC[C@@H](C(N)=O)NC(=O)[C@H](CO)NC(=O)[C@H]([C@@H](C)O)NC(=O)[C@H](Cc2ccccc2)NC(=O)[C@H]([C@@H](C)O)NC(=O)[C@H](CCCCN)NC(=O)[C@H](Cc2c[nH]c3ccccc23)NC(=O)[C@H](Cc2ccccc2)NC(=O)[C@H](C)NC(=O)[C@H](CC(N)=O)NC(=O)[C@H](CCCCN)NC1=O (H-AGCKNAFWKTFTSC-NH2; disulfide 3-14) |
| – | – | < 1 | – | C[C@H](N)C(=O)NCC(=O)N[C@H]1CSSC[C@@H](C(N)=O)NC(=O)[C@H](CO)NC(=O)[C@H]([C@@H](C)O)NC(=O)[C@H](C)NC(=O)[C@H]([C@@H](C)O)NC(=O)[C@H](CCCCN)NC(=O)[C@H](Cc2c[nH]c3ccccc23)NC(=O)[C@H](Cc2ccccc2)NC(=O)[C@H](Cc2ccccc2)NC(=O)[C@H](CC(N)=O)NC(=O)[C@H](CCCCN)NC1=O (H-AGCKNFFWKTATSC-NH2; disulfide 3-14) |
